Experimental data reported in ChEMBL document CHEMBL1201861, “Genomics of Drug Sensitity in Cancer screening data, Wellcome Trust Sanger Institute”.
Counter-ions that a name gives are not always drawn.

Tests used:
Experiment in all cases: cells
[1] = system: LNCaP-Clone-FGC; format: functional, cell-based, Homo sapiens; settings: Homo sapiens, LNCaP-Clone-FGC
Description: SANGER: Inhibition of human LNCaP-Clone-FGC cell growth in a cell viability assay.

[2] = system: Lu-65; format: functional, cell-based, Homo sapiens; settings: Homo sapiens, Lu-65;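 further: growth inhibition of Lu-65 cancer cells, read out by a cell viability assay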
Description: SANGER: Inhibition of human LU-65 cell growth in a cell viability assay.

[3] = system: A253 cell line; format: functional, cell-based, Homo sapiens; settings: Homo sapiens, A253;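 further: growth inhibition of A253 cells, read out with a cell viability assay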
Description: SANGER: Inhibition of human A253 cell growth in a cell viability assay.

[4] = system: D-263MG; format: functional, cell-based, Homo sapiens; settings: Homo sapiens, D-263MG
Description: SANGER: Inhibition of human D-263MG cell growth in a cell viability assay.

[5] = system: KE-37; format: functional, cell-based, Homo sapiens; settings: Homo sapiens, KE-37;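 further: growth inhibition of KE-37 cells, read out with a cell viability assay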
Description: SANGER: Inhibition of human KE-37 cell growth in a cell viability assay.

[6] = system: HuTu80; format: functional, cell-based, Homo sapiens, HUTU-80; settings: Homo sapiens, HuTu80;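 further: growth inhibition of HuTu80 human cells, determined with a cell viability readout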
Description: SANGER: Inhibition of human HUTU-80 cell growth in a cell viability assay.

[7] = system: NCI-H446; format: functional, cell-based, Homo sapiens; settings: Homo sapiens, NCI-H446;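 further: growth inhibition of NCI-H446 cells determined by a cell viability assay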
Description: SANGER: Inhibition of human NCI-H446 cell growth in a cell viability assay.

[8] = system: SW872; format: functional, cell-based, Homo sapiens; settings: Homo sapiens, SW872;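 further: growth inhibition of SW872 cells, read out by a viability assay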
Description: SANGER: Inhibition of human SW872 cell growth in a cell viability assay.

[9] = system: NB69; format: functional, cell-based, Homo sapiens; settings: Homo sapiens, NB69;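 further: growth inhibition of NB69 cells, determined by a cell viability assay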
Description: SANGER: Inhibition of human NB69 cell growth in a cell viability assay.

[10] = system: KU812 cell line; format: functional, cell-based, Homo sapiens; settings: Homo sapiens, KU812;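 further: growth inhibition of KU812 cells, read out with a cell viability assay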
Description: SANGER: Inhibition of human KU812 cell growth in a cell viability assay.

[11] = system: JVM-2; format: functional, cell-based, Homo sapiens; settings: Homo sapiens, JVM-2;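 further: growth inhibition of JVM-2 cells determined by a cell viability assay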
Description: SANGER: Inhibition of human JVM-2 cell growth in a cell viability assay.

[12] = system: LC-2-ad; format: functional, cell-based, Homo sapiens; settings: Homo sapiens, LC-2-ad;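 further: growth inhibition of human LC-2-ad cells, read out with a cell viability assay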
Description: SANGER: Inhibition of human LC-2-ad cell growth in a cell viability assay.

[13] = system: GT3TKB; format: functional, cell-based, Homo sapiens; settings: Homo sapiens, GT3TKB;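 further: growth inhibition of the cell line, read out with a cell viability assay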
Description: SANGER: Inhibition of human GT3TKB cell growth in a cell viability assay.

[14] = system: LU-134-A; format: functional, cell-based, Homo sapiens; settings: Homo sapiens, LU-134-A
Description: SANGER: Inhibition of human LU-134-A cell growth in a cell viability assay.

[15] = system: KURAMOCHI; format: functional, cell-based, Homo sapiens; settings: Homo sapiens, KURAMOCHI;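 further: growth inhibition of KURAMOCHI cells, read out with a cell viability assay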
Description: SANGER: Inhibition of human KURAMOCHI cell growth in a cell viability assay.

[16] = system: DEL; format: functional, cell-based, Homo sapiens; settings: Homo sapiens, DEL;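 further: growth inhibition of the human DEL cell line, read out with a cell viability assay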
Description: SANGER: Inhibition of human DEL cell growth in a cell viability assay.

[17] = system: OMC-1; format: functional, cell-based, Homo sapiens; settings: Homo sapiens, OMC-1;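 further: growth inhibition of the OMC-1 cell line, measured by a cell viability assay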
Description: SANGER: Inhibition of human OMC-1 cell growth in a cell viability assay.

[18] = system: SK-UT-1; format: functional, cell-based, Homo sapiens; settings: Homo sapiens, SK-UT-1;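 further: growth inhibition of SK-UT-1 cells, measured by a cell viability assay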
Description: SANGER: Inhibition of human SK-UT-1 cell growth in a cell viability assay.

[19] = system: KG-1; format: functional, cell-based, Homo sapiens; settings: Homo sapiens, KG-1;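 further: growth inhibition of KG-1 cells, read out by a cell viability assay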
Description: SANGER: Inhibition of human KG-1 cell growth in a cell viability assay.

[20] = system: TE-8; format: functional, cell-based, Homo sapiens; settings: Homo sapiens, TE-8;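 further: growth inhibition of TE-8 cells, measured with a cell viability readout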
Description: SANGER: Inhibition of human TE-8 cell growth in a cell viability assay.

[21] = system: 697; format: functional, cell-based, Homo sapiens; settings: Homo sapiens
Description: SANGER: Inhibition of human 697 cell growth in a cell viability assay.

[22] = system: MC116; format: functional, cell-based, Homo sapiens; settings: Homo sapiens, MC116;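 further: growth inhibition of MC116 cells, read out with a cell viability assay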
Description: SANGER: Inhibition of human MC116 cell growth in a cell viability assay.

[23] = system: DB; format: functional, cell-based, Homo sapiens; settings: Homo sapiens, DB
Description: SANGER: Inhibition of human DB cell growth in a cell viability assay.

[24] = system: HT; format: functional, cell-based, Homo sapiens; settings: Homo sapiens, HT
Description: SANGER: Inhibition of human HT cell growth in a cell viability assay.

[25] = system: RCC10RGB; format: functional, cell-based, Homo sapiens; settings: Homo sapiens, RCC10RGB;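 further: growth inhibition of human RCC10RGB cells, read out by a cell viability assay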
Description: SANGER: Inhibition of human RCC10RGB cell growth in a cell viability assay.

[26] = system: ACN; format: functional, cell-based, Homo sapiens; settings: Homo sapiens, ACN;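 further: growth inhibition of the human ACN cell line, read out via cell viability testing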
Description: SANGER: Inhibition of human ACN cell growth in a cell viability assay.

[27] = system: MZ2-MEL; format: functional, cell-based, Homo sapiens; settings: Homo sapiens, MZ2-MEL;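 further: growth inhibition of MZ2-MEL cells read out with a cell viability assay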
Description: SANGER: Inhibition of human MZ2-MEL cell growth in a cell viability assay.

[28] = system: SF-539; format: functional, cell-based, Homo sapiens; settings: Homo sapiens, SF-539;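 further: Read-out is a cell viability assay, with IC50 reflecting inhibition of cell growth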
Description: SANGER: Inhibition of human SF539 cell growth in a cell viability assay.

[29] = system: GI-1; format: functional, cell-based, Homo sapiens; settings: Homo sapiens, GI-1;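 further: growth inhibition of human GI-1 cells, measured with a cell viability readout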
Description: SANGER: Inhibition of human GI-1 cell growth in a cell viability assay.

[30] = system: KP-N-YS; format: functional, cell-based, Homo sapiens; settings: Homo sapiens, KP-N-YS;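 further: cell viability assay measuring inhibition of cell line growth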
Description: SANGER: Inhibition of human KP-N-YS cell growth in a cell viability assay.

[31] = system: ONS-76; format: functional, cell-based, Homo sapiens; settings: Homo sapiens, ONS-76;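 further: growth inhibition of human ONS-76 cells, read out with a cell viability assay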
Description: SANGER: Inhibition of human ONS-76 cell growth in a cell viability assay.

[32] = system: HCE-T; format: functional, cell-based, Homo sapiens; settings: Homo sapiens, HCE-T;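 further: cell viability assay read-out, reporting inhibition of HCE-T cell growth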
Description: SANGER: Inhibition of human HCE-T cell growth in a cell viability assay.

[33] = system: C8166; format: functional, cell-based, Homo sapiens; settings: Homo sapiens, C8166;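 further: growth inhibition of human C8166 cells measured by a cell viability assay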
Description: SANGER: Inhibition of human C8166 cell growth in a cell viability assay.

[34] = system: SNB-75; format: functional, cell-based, Homo sapiens; settings: Homo sapiens, SNB-75;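 further: cell viability assay measuring growth inhibition of human SNB-75 cells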
Description: SANGER: Inhibition of human SNB75 cell growth in a cell viability assay.

[35] = system: JAR; format: functional, cell-based, Homo sapiens; settings: Homo sapiens, JAR;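 further: growth inhibition of human JAR cells determined with a cell viability assay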
Description: SANGER: Inhibition of human JAR cell growth in a cell viability assay.

[36] = system: TE-1; format: functional, cell-based, Homo sapiens; settings: Homo sapiens, TE-1;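 further: growth inhibition of the human TE-1 cell line, read out with a cell viability assay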
Description: SANGER: Inhibition of human TE-1 cell growth in a cell viability assay.

[37] = system: MZ7-mel; format: functional, cell-based, Homo sapiens; settings: Homo sapiens, MZ7-mel;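 further: growth inhibition of human MZ7-mel cells, measured by a cell viability assay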
Description: SANGER: Inhibition of human MZ7-mel cell growth in a cell viability assay.

[38] = system: Calu-6; format: functional, cell-based, Homo sapiens; settings: Homo sapiens, Calu-6;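 further: growth of human Calu-6 cells, read out by a cell viability assay, IC50 marking inhibition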
Description: SANGER: Inhibition of human Calu-6 cell growth in a cell viability assay.

[39] = system: LS-513; format: functional, cell-based, Homo sapiens; settings: Homo sapiens, LS-513
Description: SANGER: Inhibition of human LS-513 cell growth in a cell viability assay.

[40] = system: MMAC-SF; format: functional, cell-based, Homo sapiens; settings: Homo sapiens, MMAC-SF;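 further: growth inhibition of human MMAC-SF cells, read out with a cell viability assay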
Description: SANGER: Inhibition of human MMAC-SF cell growth in a cell viability assay.

[41] = system: MLMA; format: functional, cell-based, Homo sapiens; settings: Homo sapiens, MLMA;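 further: growth inhibition of MLMA cells (human), determined through a cell viability readout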
Description: SANGER: Inhibition of human MLMA cell growth in a cell viability assay.

[42] = system: L-428; format: functional, cell-based, Homo sapiens; settings: Homo sapiens, L-428
Description: SANGER: Inhibition of human L-428 cell growth in a cell viability assay.

[43] = system: MHH-PREB-1; format: functional, cell-based, Homo sapiens; settings: Homo sapiens, MHH-PREB-1;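 further: cell viability assay measuring inhibition of proliferation of human MHH-PREB-1 cells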
Description: SANGER: Inhibition of human MHH-PREB-1 cell growth in a cell viability assay.

[44] = system: NKM-1; format: functional, cell-based, Homo sapiens; settings: Homo sapiens, NKM-1;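 further: growth inhibition of NKM-1 cells, read out with a cell viability assay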
Description: SANGER: Inhibition of human NKM-1 cell growth in a cell viability assay.

[45] = system: LB2518-MEL; format: functional, cell-based, Homo sapiens; settings: Homo sapiens, LB2518-MEL;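 further: growth inhibition of human LB2518-MEL cells, measured with a cell viability assay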
Description: SANGER: Inhibition of human LB2518-MEL cell growth in a cell viability assay.

[46] = system: A101D; format: functional, cell-based, Homo sapiens; settings: Homo sapiens, A101D;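 further: growth inhibition of the cell line, measured with a viability assay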
Description: SANGER: Inhibition of human A101D cell growth in a cell viability assay.

[47] = system: COLO-668; format: functional, cell-based, Homo sapiens; settings: Homo sapiens, COLO-668
Description: SANGER: Inhibition of human COLO-668 cell growth in a cell viability assay.

[48] = system: NB12; format: functional, cell-based, Homo sapiens; settings: Homo sapiens, NB12;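 further: growth inhibition of human NB12 cells, read out by a cell viability assay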
Description: SANGER: Inhibition of human NB12 cell growth in a cell viability assay.

[49] = system: CW-2; format: functional, cell-based, Homo sapiens; settings: Homo sapiens, CW-2;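 further: growth inhibition of CW-2 cells, read out by a cell viability assay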
Description: SANGER: Inhibition of human CW-2 cell growth in a cell viability assay.

[50] = system: NB5; format: functional, cell-based, Homo sapiens; settings: Homo sapiens, NB5;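 further: growth inhibition of NB5 cells, read out as cell viability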
Description: SANGER: Inhibition of human NB5 cell growth in a cell viability assay.

COc1cc2ncn(-c3cc(OCc4ccccc4S(C)(=O)=O)c(C#N)s3)c2cc1OC [GSK-319347A]
IC50 [1]: > 5 µM
IC50 [2]: > 5 µM
IC50 [3]: > 5 µM
IC50 [4]: > 5 µM
IC50 [5]: > 5 µM
IC50 [6]: > 5 µM
IC50 [7]: > 5 µM
IC50 [8]: > 5 µM
IC50 [9]: > 5 µM
IC50 [10]: > 5 µM
IC50 [11]: > 5 µM
IC50 [12]: > 5 µM
IC50 [13]: > 5 µM
IC50 [14]: > 5 µM
IC50 [15]: > 5 µM
IC50 [16]: > 5 µM
IC50 [17]: > 5 µM
IC50 [18]: > 5 µM
IC50 [19]: > 5 µM
IC50 [20]: > 5 µM
IC50 [21]: > 5 µM
IC50 [22]: > 5 µM
IC50 [23]: > 5 µM
IC50 [24]: > 5 µM
IC50 [25]: > 5 µM
IC50 [26]: > 5 µM
IC50 [27]: > 5 µM
IC50 [28]: > 5 µM
IC50 [29]: > 5 µM
IC50 [30]: > 5 µM
IC50 [31]: > 5 µM
IC50 [32]: > 5 µM
IC50 [33]: > 5 µM
IC50 [34]: > 5 µM
IC50 [35]: > 5 µM
IC50 [36]: > 5 µM
IC50 [37]: > 5 µM
IC50 [38]: > 5 µM
IC50 [39]: > 5 µM
IC50 [40]: > 5 µM
IC50 [41]: > 5 µM
IC50 [42]: > 5 µM
IC50 [43]: > 5 µM
IC50 [44]: > 5 µM
IC50 [45]: > 5 µM
IC50 [46]: > 5 µM
IC50 [47]: > 5 µM
IC50 [48]: > 5 µM
IC50 [49]: > 5 µM
IC50 [50]: > 5 µM

O=C(O)c1ccc(-c2c[nH]c3ncc(-c4ccccc4)cc23)cc1C1CCCC1 [GSK-650394]
IC50 [1]: > 16 µM
IC50 [2]: > 16 µM
IC50 [3]: > 16 µM
IC50 [4]: 13.7 µM
IC50 [5]: > 16 µM
IC50 [6]: 1.3 µM
IC50 [7]: > 16 µM
IC50 [8]: 13.7 µM
IC50 [9]: > 16 µM
IC50 [10]: 2.19 µM
IC50 [11]: > 16 µM
IC50 [12]: > 16 µM
IC50 [13]: > 16 µM
IC50 [14]: 6.55 µM
IC50 [15]: > 16 µM
IC50 [16]: 5.11 µM
IC50 [17]: > 16 µM
IC50 [18]: 11.8 µM
IC50 [19]: > 16 µM
IC50 [20]: 4.12 µM
IC50 [21]: > 16 µM
IC50 [22]: > 16 µM
IC50 [23]: > 16 µM
IC50 [24]: > 16 µM
IC50 [25]: > 16 µM
IC50 [26]: > 16 µM
IC50 [27]: 6.61 µM
IC50 [28]: > 16 µM
IC50 [29]: > 16 µM
IC50 [30]: 4.39 µM
IC50 [31]: 4.14 µM
IC50 [32]: > 16 µM
IC50 [33]: > 16 µM
IC50 [34]: > 16 µM
IC50 [35]: > 16 µM
IC50 [36]: > 16 µM
IC50 [37]: > 16 µM
IC50 [38]: > 16 µM
IC50 [39]: > 16 µM
IC50 [40]: > 16 µM
IC50 [41]: > 16 µM
IC50 [42]: > 16 µM
IC50 [43]: > 16 µM
IC50 [44]: 2.77 µM
IC50 [45]: > 16 µM
IC50 [46]: 9.27 µM
IC50 [47]: > 16 µM
IC50 [48]: > 16 µM
IC50 [49]: > 16 µM
IC50 [50]: > 16 µM

COC1=CC(c2cc3ccccc3[nH]2)=N/C1=C\c1[nH]c(C)cc1C [OBATOCLAX MESYLATE]
IC50 [1]: 2.3 µM
IC50 [2]: 1.09 µM
IC50 [3]: 0.575 µM
IC50 [4]: 3.15 µM
IC50 [5]: < 0.0625 µM
IC50 [6]: 0.104 µM
IC50 [7]: 0.95 µM
IC50 [8]: 0.16 µM
IC50 [9]: 0.0157 µM
IC50 [10]: 0.994 µM
IC50 [11]: 3.94 µM
IC50 [12]: 0.0158 µM
IC50 [13]: 0.163 µM
IC50 [14]: > 16 µM
IC50 [15]: 0.0851 µM
IC50 [16]: 0.0835 µM
IC50 [17]: 0.721 µM
IC50 [18]: 0.136 µM
IC50 [19]: 0.334 µM
IC50 [20]: 0.0989 µM
IC50 [21]: 0.0532 µM
IC50 [22]: 0.113 µM
IC50 [23]: 0.234 µM
IC50 [24]: 0.256 µM
IC50 [25]: 1.14 µM
IC50 [26]: < 0.0625 µM
IC50 [27]: 0.0296 µM
IC50 [28]: 0.116 µM
IC50 [29]: 0.275 µM
IC50 [30]: 0.789 µM
IC50 [31]: 0.0204 µM
IC50 [32]: 0.125 µM
IC50 [33]: 0.474 µM
IC50 [34]: 0.557 µM
IC50 [35]: > 16 µM
IC50 [36]: 0.144 µM
IC50 [37]: < 0.0625 µM
IC50 [38]: 0.0903 µM
IC50 [39]: > 16 µM
IC50 [40]: 0.0767 µM
IC50 [41]: 0.0753 µM
IC50 [42]: 0.37 µM
IC50 [43]: < 0.0625 µM
IC50 [44]: < 0.0625 µM
IC50 [45]: 0.234 µM
IC50 [46]: 0.0305 µM
IC50 [47]: 1.33 µM
IC50 [48]: 0.725 µM
IC50 [49]: > 16 µM
IC50 [50]: 1.41 µM
